Data as given in patent publication US8309064B2, “Skin care compositions comprising phenoxyalkyl amines” (Conopco, Inc., priority 2009, dated 2012).

System: Melanoderm tissue equivalent model MEL-300 containing melanocytes
Experiment: Inhibition of melanogenesis (total melanin content) in Melanoderm tissue equivalent model
Type: cell-based
Conditions: 14 days; for inhibition at 5 µM: Melanocyte, 336 h, 5 μM in maintenance medium, total melanin content, DMSO vehicle control; for melanogenesis inhibition (in words): Melanoderm MEL-300, 5 μM
Description: Melanoderm tissue equivalent model MEL-300 (MatTek: Ashland, Mass.) containing melanocytes obtained from dark skin individuals were cultured as per supplier instructions. Components were added to the maintenance medium phase (no topical treatments) at a final concentration of 5 μM for 14 days at which time the experiment was terminated and the tissues assessed for melanin content. Medium and treatments were changed three times per week. DMSO was utilized as the vehicle control and all treatments were performed at least in duplicate.
For quantification of total melanin, each Melanoderm was placed into an individual Eppendorf tube (2 mL) into which 250 μL of Solvable™ tissue solubilizer (Packard Bioscience Co., Cat#6NE9100) was added. Each tube was vortexed and incubated at 60° C. for 18 hours. Each sample was then centrifuged (5-minutes at 13,000 RPMs) to remove any particulates. 100 or 200 μL of supernatant were transferred to a 96 well microtiter plate and the absorbance read at 490 nm. Total melanin content was calculated from a standard curve using synthetic melanin (Sigma Cat# M8631). Data was analyzed for significance using the t-test in Microsoft Excel to generate p-values (p-values less than 0.01 represent 99% confidence, p values of 0.05 represent 95% confidence both of which are statistically significant).

SMILES	inhibition at 5 µM [%]	melanogenesis inhibition (in words)
OCCNCCCCCCOc1ccccc1 [5a, 2-(6-phenoxyhexylamino)ethanol]	21.9	–
Cc1ccccc1OCCCCCCNCCO [5b, 2-[[6-(2-methylphenoxy)hexyl]amino]-ethanol]	24.1	highest melanogenesis inhibition in this set
CC(C)c1ccccc1OCCCCCCNC(C)(C)C [5bb, 6-(2-isopropylphenoxy)-N-tert-butylhexan-1-amine]	44.2	–
COCCNCCCCCCOc1ccccc1C [5c, 6-(o-tolyloxy)-N-(2-methoxyethyl)hexan-1-amine]	31.7	–
CC(C)(C)NCCCCCCOc1ccccc1C(C)(C)C [5cc, 6-(2-tert-butylphenoxy)-N-tert-butylhexan-1-amine]	55.2	–
Cc1ccccc1OCCCCCNCCO [5d, 2-(5-(o-tolyloxy)pentylamino)ethanol]	20.8	highest melanogenesis inhibition in this set
CC(C)(C)NCCCCCCOc1ccccc1-c1ccccc1 [5dd, 6-(2-phenylphenoxy)-N-tert-butylhexan-1-amine]	54.8	–
Cc1ccccc1OCCCCNCCO [5e, 2-(4-(o-tolyloxy)butylamino)ethanol]	17.9	–
CC(C)(C)NCCCCCCOc1cccc2ccccc12 [5ee, N-tert-butyl-6-(naphthalen-4-yloxy)hexan-1-amine]	35.9	–
Cc1ccccc1OCCCNCCO [5f, 2-(3-(o-tolyloxy)propyalmino)ethanol]	10.7	–
CCNCCCCCCOc1ccccc1C [5ff, 6-(o-tolyloxy)-N-ethylhexan-1-amine]	18.1	–
Cc1ccccc1OCCNCCO [5g, 2-(2-(o-tolyloxy)ethylamino)ethanol]	3.2	–
CCNCCCCCCOc1cccc2ccccc12 [5gg, N-ethyl-6-(naphthalen-1-yloxy)hexan-1-amine]	35	–
CCNCCCCCCOc1ccccc1CC [5hh, 6-(2-ethylphenoxy)-N-ethylhexan-1-amine]	37.1	–
Cc1ccccc1OCCCCCCNC(C)(C)C [5i, 6-(o-tolyloxy)-N-tert-butylhexan-1-amine]	23.2	–
Cc1ccccc1OCCCCCCN [5ii, 6-(o-tolyloxy)hexan-1-amine]	-6.9	–
Cc1ccccc1OCCCCCCN(C)C [5j, 6-(o-tolyloxy)-N,N-dimethylhexan-1-amine]	24.2	–

SMILES	inhibition at 5 µM [%]	melanogenesis inhibition (in words)
CC(=O)N(CCO)CCCCCCOc1ccccc1C [5jj, N-(6-(o-tolyloxy)hexyl)-N-(2-hydroxyethyl)acetamide]	-5.2	–
CCN(C)CCCCCCOc1ccccc1C [5k, 6-(o-tolyoxy)-N-ethyl-N-methylhexan-1-amine]	23.6	–
OCCNCCCCCCCc1ccccc1 [5kk, 2-(7-phenylheptylamino)ethanol]	32.7	–
CCN(CC)CCCCCCOc1ccccc1C [5l, 6-(o-tolyloxy)-N,N-diethylhexan-1-amine]	45.6	–
OCCNCCCCCCOC1CCCCC1 [5ll, 2-(6-(cyclohexyloxy)hexylamino)ethanol]	25	–
Cc1ccccc1OCCCCCCN(CCO)CCO [5m, 6-(o-tolyloxy)-N,N-di(2-hydroxyethyl)hexan-1-amine]	32.9	–
Cc1ccccc1OCCCCCCN1CCOCC1 [5n]	42.1	–
Cc1ccccc1OCCCCCCn1ccnc1 [5o, 1-(6-(o-tolyloxy)hexyl)-1H-imidazole]	22.1	–
Cc1cccc(OCCCCCCN(C)C)c1 [5p, 6-(m-tolyoxy)-N,N-dimethylhexan-1-amine]	37.1	–
Cc1ccc(OCCCCCCN(C)C)cc1 [5q, 6-(p-tolyoxy)-N,N-dimethylhexan-1-amine]	41.5	–
CCc1ccccc1OCCCCCCN(C)C [5r, 6-(2-ethylphenoxy)-N,N-dimethylhexan-1-amine]	32.9	–
CC(C)c1ccccc1OCCCCCCN(C)C [5t, 6-(2-isopropylphenoxy)-N,N-dimethylhexan-1-amine]	48.5	–
CN(C)CCCCCCOc1ccccc1C(C)(C)C [5u, 6-(2-tert-butylphenxoy)-N,N-dimethylhexan-1-amine]	49.6	–
CN(C)CCCCCCOc1ccccc1-c1ccccc1 [5v, 6-(2-phenylphenoxy)-N,N-dimethylhexan-1-amine]	56.7	–
CN(C)CCCCCCOc1cccc2ccccc12 [5w, N,N-dimethyl-6-(naphthalen-4-yloxy)hexan-1-amine]	51.3	–
Cc1ccc(OCCCCCCNC(C)(C)C)cc1 [5y, 6-(p-tolyloxy)-N-tert-butylhexan-1-amine]	47.5	–
